Data reported in patent US11236121B2, “Crystalline 19-nor C3,3-disubstituted C21-N-pyrazolyl steroid” (priority 2016, dated 2022).
Values after ≈ are worked out from the molar mass of the structure shown. “Also recorded” adds a separate entry of the source. Where two headings read alike, the source gives them in different places.

Assays:
[1] = Equilibrium solubility of Forms A, C and P in ethyl acetate; assay type: physicochemical
Protocol: (§1) Solubility profiles of Forms A, C and P across a range of temperature can give an indication of the relative stability of different forms within different temperature ranges. Sufficient equilibrium solubility data were collected experimentally covering 5-70° C.

[2] = assay type: physicochemical; conditions: for stability of the crystalline form in words: XRPD, ambient conditions
Protocol: A PANalytical Empyrean X-ray powder diffractometer with a 12-well auto-sampler stage was used for analysis throughout this study. Resolution calibration of the instrument was performed every 6 months, and sensitivity measurements were performed after the sample stage was changed. A silicon (Si) pressed powder sample was used as the reference standard.
The wet cake of Form P (˜5 min air) was dried in two ways: (a) under air at room temperature overnight, and (b) under vacuum at 40° C. for 3 hours. Both dried cakes were analyzed by XRPD, 1H-NMR, and TGA.

[3] = Crystal form and relative stability of slurried solids in EtOAc, checked by XRPD; assay type: physicochemical; conditions: for Crystal Form Checked by XRPD: ethyl acetate
Protocol: During solubility measurements, an XRPD pattern was detected in (a) slurries of Form A in EtOAc at 5° C. (after 1 h) and 20° C. (after 2 days), (b) slurries of Form C in EtOAc at 5° C. (after 1 h) and 20° C. (after 7 days). There was no direct match of this solid form's XRPD pattern to other crystal forms of Compound 1.
as §1

[4] = assay type: physicochemical
Protocol: In each experiment, approximately 10 to 20 mg of Form A was suspended in 0.5 mL of a solvent or mixture of solvents. After stirring at RT or 50° C. for 48 hours, the solids were isolated by centrifugation for analysis (wet sample). If the suspensions turned into clear solution, the clear solutions were kept at ambient conditions for slow evaporation.
In one embodiment, the inter-conversion between Forms A, C and K can be studied in a series of slurry conversion experiments conducted in ethyl acetate, n-butanol, and methyl tert-butyl ether (MBTE) at both room temperature (RT) and 50° C. Compound 1 can display moderate solubility, and may yield solvated forms during these screening experiments. The transition temperature between Forms A and C was estimated to be ˜17° C., and the transition temperature between Forms K and C was above 100° C.

[5] = Hygroscopicity by dynamic vapor sorption (DVS); assay type: physicochemical; conditions: for water uptake at 80% RH / water uptake at 95% RH: DVS isotherm; for water uptake at 80% RH / water uptake at 95% RH / form change before and after DVS (XRPD) / hygroscopicity: 25° C.; for form change before and after DVS (XRPD) / hygroscopicity / water uptake at RH less than or equal to 95%: DVS; for water uptake at RH less than or equal to 95%: RH less than or equal to 95% (description section)
Protocol: Dynamic vapor sorption (DVS) was measured via an SMS (Surface Measurement Systems) DVS Intrinsic system. The relative humidity at 25° C. was calibrated against the deliquescence point of LiCl, Mg(NO3)2, and KCl.
The hygroscopicity of Form A, Form C, and Form K were investigated at 25° C. using DVS. The XRPD patterns of each sample before and after DVS were compared in order to investigate any potential form change.

C[C@@]1(O)CC[C@H]2[C@H](CC[C@@H]3[C@@H]2CC[C@]2(C)[C@@H](C(=O)Cn4cc(C#N)cn4)CC[C@@H]32)C1 [Form P]
solubility at 20 h ([1]; 5 °C, organic solvent or mixture, thermodynamic from solid, equilibration 20 h): 5.4 mg/mL (≈ 13.2 mM)
solubility at 3 day ([1]; 10 °C, organic solvent or mixture, thermodynamic from solid, equilibration 3 day): 6.6 mg/mL (≈ 16.1 mM)
solubility at 2 day ([1]; 15 °C, organic solvent or mixture, thermodynamic from solid, equilibration 2 day): 8 mg/mL (≈ 19.5 mM)
Solubility ([1]; 20 ° C., equilibration 2 day): 11.4 mg/mL (≈ 27.8 mM)
solubility at 20 h ([1]; 25 °C, organic solvent or mixture, thermodynamic from solid, equilibration 20 h): 12.6 mg/mL (≈ 30.8 mM)
solubility at 20 h ([1]; 30 °C, organic solvent or mixture, thermodynamic from solid, equilibration 20 h): 13.5 mg/mL (≈ 33 mM)
XRPD pattern of dried cake ([2]; wet cake dried under air at room temperature overnight): conforming to Form P
XRPD pattern of dried cake ([2]; wet cake dried under vacuum at 40° C. for 3 hours): conforming to Form A
relative stability of forms ([3]; EtOAc, ≤20° C.): more stable than both Forms A and C; also recorded: more stable than Form C
stability in EtOAc ([3]; EtOAc, ≥35° C.): converts to Form A
Crystal Form Checked by XRPD ([3]; 5 ° C., 20 h): Form P
Crystal Form Checked by XRPD ([3]; 10 ° C., 3 day): Form P
Crystal Form Checked by XRPD ([3]; 15 ° C., 2 day): Form P
Crystal Form Checked by XRPD ([3]; 20 ° C., 2 day): No Form Change
Crystal Form Checked by XRPD ([3]; 25 ° C., 20 h): Form P
Crystal Form Checked by XRPD ([3]; 30 ° C., 20 h): Form P
Crystal Form Checked by XRPD ([3]; 40 ° C., 24 h): Form P to Form

C[C@@]1(O)CC[C@H]2[C@H](CC[C@@H]3[C@@H]2CC[C@]2(C)[C@@H](C(=O)Cn4cc(C#N)cn4)CC[C@@H]32)C1 [Forms A and K]
Final Form after slurry conversion ([4]; Ethyl acetate, 50° C.): Form C

C[C@@]1(O)CC[C@H]2[C@H](CC[C@@H]3[C@@H]2CC[C@]2(C)[C@@H](C(=O)Cn4cc(C#N)cn4)CC[C@@H]32)C1 [Form E]
form after drying (XRPD) ([2]; drying at ambient (room temperature) conditions): transformed to a mixture of Forms A and C that exhibited low crystallinity

C[C@@]1(O)CC[C@H]2[C@H](CC[C@@H]3[C@@H]2CC[C@]2(C)[C@@H](C(=O)Cn4cc(C#N)cn4)CC[C@@H]32)C1 [Form J]
stability of the crystalline form in words [2]: metastable
form after drying (XRPD) ([2]; drying at ambient conditions for 3 days): transforms to Form A

C[C@@]1(O)CC[C@H]2[C@H](CC[C@@H]3[C@@H]2CC[C@]2(C)[C@@H](C(=O)Cn4cc(C#N)cn4)CC[C@@H]32)C1 [Form H]
stability of the crystalline form in words [2]: metastable

C[C@@]1(O)CC[C@H]2[C@H](CC[C@@H]3[C@@H]2CC[C@]2(C)[C@@H](C(=O)Cn4cc(C#N)cn4)CC[C@@H]32)C1 [Forms A, C and K]
Final Form after slurry conversion ([4]; MBTE, 50° C.): Form C
Final Form after slurry conversion ([4]; MBTE, RT): Form C
Final Form after slurry conversion ([4]; n-Butanol, 50° C.): Form C
Final Form after slurry conversion ([4]; n-Butanol, RT): Form C

C[C@@]1(O)CC[C@H]2[C@H](CC[C@@H]3[C@@H]2CC[C@]2(C)[C@@H](C(=O)Cn4cc(C#N)cn4)CC[C@@H]32)C1 [Forms A and K (with Form C seeds)]
Final Form after slurry conversion ([4]; Ethyl acetate, RT): Form C

C[C@@]1(O)CC[C@H]2[C@H](CC[C@@H]3[C@@H]2CC[C@]2(C)[C@@H](C(=O)Cn4cc(C#N)cn4)CC[C@@H]32)C1 [Form K]
water uptake at 80% RH [5]: 0.18 % by weight
water uptake at 95% RH [5]: less than 0.35 % by weight
form change before and after DVS (XRPD) [5]: no form change
hygroscopicity [5]: non-hygroscopic
water uptake at RH less than or equal to 95% [5]: less than 0.35 weight percent

C[C@@]1(O)CC[C@H]2[C@H](CC[C@@H]3[C@@H]2CC[C@]2(C)[C@@H](C(=O)Cn4cc(C#N)cn4)CC[C@@H]32)C1 [Form C]
Solubility ([1]; 20 ° C., equilibration 2 day): 11.8 mg/mL (≈ 28.8 mM)
Solubility ([1]; 30 ° C., equilibration 4 h): 14.9 mg/mL (≈ 36.4 mM)
Solubility ([1]; 40 ° C., equilibration 7 h): 17.9 mg/mL (≈ 43.7 mM)
Solubility ([1]; 50 ° C., equilibration 20 h): 23.7 mg/mL (≈ 57.9 mM)
Solubility ([1]; 60 ° C., equilibration 4 h): 29.8 mg/mL (≈ 72.8 mM)
transition temperature between Forms A and C ([4]; estimated from slurry conversion experiments): ~17 °C
transition temperature between Forms K and C ([4]; from slurry conversion experiments): above 100 °C
thermodynamic stability compared to Form A and Form K ([4]; slurry conversion in ethyl acetate, n-butanol or methyl tert-butyl ether, room temperature to 50° C.): more thermodynamically stable
water uptake at 80% RH [5]: 0.12 % by weight
water uptake at 95% RH [5]: less than 0.30 % by weight
form change before and after DVS (XRPD) [5]: no form change
hygroscopicity [5]: non-hygroscopic
water uptake at RH less than or equal to 95% [5]: less than 0.32 weight percent
solid form detected by XRPD in slurry in EtOAc ([3]; 5° C., after 1 h): Form P
solid form detected by XRPD in slurry in EtOAc ([3]; 20° C., after 7 days): Form P
relative stability of forms ([3]; EtOAc, across the entire processing temperature range (5-70° C. data)): more stable than Form A
Crystal Form Checked by XRPD ([3]; 20 ° C., 2 day): No Form Change
Crystal Form Checked by XRPD ([3]; 30 ° C., 4 h): No Form Change
Crystal Form Checked by XRPD ([3]; 40 ° C., 7 h): No Form Change
Crystal Form Checked by XRPD ([3]; 50 ° C., 20 h): No Form Change
Crystal Form Checked by XRPD ([3]; 60 ° C., 4 h): No Form Change

C[C@@]1(O)CC[C@H]2[C@H](CC[C@@H]3[C@@H]2CC[C@]2(C)[C@@H](C(=O)Cn4cc(C#N)cn4)CC[C@@H]32)C1 [Form N]
form after storage (XRPD) ([2]; overnight, under ambient conditions): transforms to Form A

C[C@@]1(O)CC[C@H]2[C@H](CC[C@@H]3[C@@H]2CC[C@]2(C)[C@@H](C(=O)Cn4cc(C#N)cn4)CC[C@@H]32)C1 [Form I]
stability of the crystalline form in words [2]: metastable

C[C@@]1(O)CC[C@H]2[C@H](CC[C@@H]3[C@@H]2CC[C@]2(C)[C@@H](C(=O)Cn4cc(C#N)cn4)CC[C@@H]32)C1 [Form L]
stability of the crystalline form in words [2]: metastable

C[C@@]1(O)CC[C@H]2[C@H](CC[C@@H]3[C@@H]2CC[C@]2(C)[C@@H](C(=O)Cn4cc(C#N)cn4)CC[C@@H]32)C1 [Form A]
solubility at 2 day ([1]; 20 °C, organic solvent or mixture, thermodynamic from solid, equilibration 2 day): 12.4 mg/mL (≈ 30.3 mM)
solubility at 4 h ([1]; 30 °C, organic solvent or mixture, thermodynamic from solid, equilibration 4 h): 15.5 mg/mL (≈ 37.8 mM)
solubility at 7 h ([1]; 40 °C, organic solvent or mixture, thermodynamic from solid, equilibration 7 h): 18.8 mg/mL (≈ 45.9 mM)
solubility at 20 h ([1]; 50 °C, organic solvent or mixture, thermodynamic from solid, equilibration 20 h): 25 mg/mL (≈ 61 mM)
solubility at 4 h ([1]; 60 °C, organic solvent or mixture, thermodynamic from solid, equilibration 4 h): 31.7 mg/mL (≈ 77.4 mM)
water uptake at 80% RH [5]: 0.06 % by weight
water uptake at 95% RH [5]: less than 0.12 % by weight
form change before and after DVS (XRPD) [5]: no form change
hygroscopicity [5]: non-hygroscopic
water uptake at RH less than or equal to 95% [5]: less than 0.30 weight percent
solid form detected by XRPD in slurry in EtOAc ([3]; 5° C., after 1 h): Form P
solid form detected by XRPD in slurry in EtOAc ([3]; 20° C., after 2 days): Form P
Crystal Form Checked by XRPD ([3]; 20 ° C., 2 day): No Form Change
Crystal Form Checked by XRPD ([3]; 30 ° C., 4 h): No Form Change
Crystal Form Checked by XRPD ([3]; 40 ° C., 7 h): No Form Change
Crystal Form Checked by XRPD ([3]; 50 ° C., 20 h): No Form Change
Crystal Form Checked by XRPD ([3]; 60 ° C., 4 h): No Form Change
